± gives the standard deviation of the averaged measurements.
Experiments:
Experiment in all cases: normalised growth rate inhibition (GR value) relative to DMSO control (GR (1 = untreated growth, 0 = cytostasis, <0 = cytotoxic)); higher = less growth inhibition
Conditions in all cases: 72 h
[1] = test system: MCF7
Experimental: (§1)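 Breast cancer cell lines (BT-20, Hs 578T, MCF 10A, MCF7, MDA-MB-231, SK-BR-3) were plated in 384-well plates and treated 24 h later with drugs at six concentrations (0.04-10 µM). Viable cells were counted by Hoechst/dead-cell-stain imaging at 0 and 72 h. Counts were normalised to DMSO controls on the same plate to give the relative cell count and the growth-rate inhibition (GR) value; technical plate triplicates were averaged for each biological replicate.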

[2] = test system: MCF10A
Experimental: as §1

[3] = test system: MDAMB231
Experimental: as §1

[4] = test system: HS578T
Experimental: as §1

[5] = test system: BT20
Experimental: as §1

[6] = test system: SKBR3
Experimental: as §1

Row | Structure (SMILES) | normalised growth rate inhibition ([1]; 0.04 µM) | normalised growth rate inhibition ([1]; 0.12 µM) | normalised growth rate inhibition ([1]; 0.37 µM) | normalised growth rate inhibition ([1]; 1.11 µM) | normalised growth rate inhibition ([1]; 3.33 µM) | normalised growth rate inhibition ([1]; 10 µM) | normalised growth rate inhibition ([2]; 0.04 µM) | normalised growth rate inhibition ([2]; 0.12 µM) | normalised growth rate inhibition ([2]; 0.37 µM) | normalised growth rate inhibition ([2]; 1.11 µM) | normalised growth rate inhibition ([2]; 3.33 µM) | normalised growth rate inhibition ([2]; 10 µM) | normalised growth rate inhibition ([3]; 0.04 µM) | normalised growth rate inhibition ([3]; 0.12 µM) | normalised growth rate inhibition ([3]; 0.37 µM) | normalised growth rate inhibition ([3]; 1.11 µM) | normalised growth rate inhibition ([3]; 3.33 µM) | normalised growth rate inhibition ([3]; 10 µM) | normalised growth rate inhibition ([4]; 0.04 µM) | normalised growth rate inhibition ([4]; 0.12 µM) | normalised growth rate inhibition ([4]; 0.37 µM) | normalised growth rate inhibition ([4]; 1.11 µM) | normalised growth rate inhibition ([4]; 3.33 µM) | normalised growth rate inhibition ([4]; 10 µM) | normalised growth rate inhibition ([5]; 0.04 µM) | normalised growth rate inhibition ([5]; 0.12 µM) | normalised growth rate inhibition ([5]; 0.37 µM) | normalised growth rate inhibition ([5]; 1.11 µM) | normalised growth rate inhibition ([5]; 3.33 µM) | normalised growth rate inhibition ([5]; 10 µM) | normalised growth rate inhibition ([6]; 0.04 µM) | normalised growth rate inhibition ([6]; 0.12 µM) | normalised growth rate inhibition ([6]; 0.37 µM) | normalised growth rate inhibition ([6]; 1.11 µM) | normalised growth rate inhibition ([6]; 3.33 µM) | normalised growth rate inhibition ([6]; 10 µM)
1 | Cc1ccc(F)c(NC(=O)Nc2ccc(-c3cccc4[nH]nc(N)c34)cc2)c1 [linifanib] | 1.07 ± 0.12 | 0.996 ± 0.14 | 1.01 ± 0.12 | 0.939 ± 0.079 | 0.874 ± 0.061 | 0.0601 ± 0.092 | 1.039 ± 0.0077 | 1.032 ± 0.0048 | 1.02 ± 0.012 | 1.02 ± 0.014 | 0.994 ± 0.029 | 0.716 ± 0.24 | 1.08 ± 0.014 | 1.09 ± 0.03 | 1.08 ± 0.045 | 1.07 ± 0.053 | 1.06 ± 0.045 | 0.192 ± 0.29 | 0.995 ± 0.011 | 0.979 ± 0.011 | 0.971 ± 0.025 | 0.969 ± 0.015 | 0.9497 ± 0.0069 | 0.701 ± 0.13 | 1.09 ± 0.014 | 1.07 ± 0.039 | 1.07 ± 0.032 | 1.08 ± 0.026 | 1.03 ± 0.011 | 0.544 ± 0.37 | 1.11 ± 0.046 | 1.08 ± 0.025 | 1.11 ± 0.043 | 1.1 ± 0.078 | 1.09 ± 0.078 | 0.232 ± 0.072
2 | C[C@]1(O)C[C@@H](c2nc(-c3ccc4ccc(-c5ccccc5)nc4c3)c3c(N)nccn32)C1 [linsitinib] | 0.721 ± 0.014 | 0.749 ± 0.12 | 0.555 ± 0.19 | 0.449 ± 0.14 | 0.383 ± 0.091 | 0.271 ± 0.089 | 0.956 ± 0.055 | 0.911 ± 0.081 | 0.824 ± 0.16 | 0.783 ± 0.18 | 0.731 ± 0.2 | 0.626 ± 0.26 | 0.791 ± 0.048 | 0.843 ± 0.067 | 0.861 ± 0.085 | 0.862 ± 0.068 | 0.838 ± 0.081 | 0.697 ± 0.099 | 0.975 ± 0.034 | 0.979 ± 0.024 | 0.93 ± 0.019 | 0.972 ± 0.048 | 0.963 ± 0.021 | 0.831 ± 0.072 | 0.841 ± 0.032 | 0.9 ± 0.032 | 0.949 ± 0.07 | 0.924 ± 0.054 | 0.896 ± 0.05 | 0.797 ± 0.051 | 0.657 ± 0.19 | 0.765 ± 0.11 | 0.806 ± 0.067 | 0.739 ± 0.072 | 0.678 ± 0.064 | 0.538 ± 0.085
3 | O=C1c2c(O)ccc(O)c2C(=O)c2c(NCCNCCO)ccc(NCCNCCO)c21 [mitoxantrone] | 0.0337 ± 0.042 | 0.0173 ± 0.037 | 0.0313 ± 0.056 | -0.141 ± 0.11 | -0.348 ± 0.039 | -0.59 ± 0.15 | 0.228 ± 0.057 | 0.0237 ± 0.034 | -0.00408 ± 0.025 | -0.0492 ± 0.02 | -0.186 ± 0.1 | -0.142 ± 0.092 | -0.0551 ± 0.058 | -0.0634 ± 0.075 | -0.137 ± 0.1 | -0.222 ± 0.15 | -0.327 ± 0.24 | -0.48 ± 0.21 | 0.0811 ± 0.1 | -0.0173 ± 0.041 | -0.0612 ± 0.043 | -0.207 ± 0.087 | -0.394 ± 0.11 | -0.511 ± 0.17 | 0.252 ± 0.12 | 0.0494 ± 0.084 | -0.0983 ± 0.12 | -0.205 ± 0.14 | -0.243 ± 0.12 | -0.461 ± 0.18 | -0.0581 ± 0.17 | -0.0745 ± 0.18 | -0.0948 ± 0.2 | -0.164 ± 0.17 | -0.353 ± 0.13 | -0.707 ± 0.16
4 | CCOc1cc2ncc(C#N)c(Nc3ccc(OCc4ccccn4)c(Cl)c3)c2cc1NC(=O)/C=C/CN(C)C [neratinib] | 0.722 ± 0.12 | 0.663 ± 0.081 | 0.585 ± 0.042 | 0.419 ± 0.23 | 0.299 ± 0.21 | 0.0822 ± 0.12 | 0.441 ± 0.24 | 0.314 ± 0.19 | 0.191 ± 0.11 | 0.168 ± 0.098 | 0.131 ± 0.058 | 0.122 ± 0.054 | 0.907 ± 0.13 | 0.868 ± 0.15 | 0.728 ± 0.12 | 0.581 ± 0.23 | 0.387 ± 0.29 | 0.0691 ± 0.39 | 0.887 ± 0.0023 | 0.81 ± 0.0089 | 0.649 ± 0.085 | 0.485 ± 0.22 | 0.274 ± 0.24 | 0.0282 ± 0.1 | 0.724 ± 0.042 | 0.669 ± 0.069 | 0.617 ± 0.11 | 0.528 ± 0.11 | 0.41 ± 0.12 | 0.301 ± 0.13 | -0.108 ± 0.19 | -0.114 ± 0.2 | -0.14 ± 0.19 | -0.118 ± 0.22 | -0.152 ± 0.22 | -0.215 ± 0.19
5 | Cc1cn(-c2cc(NC(=O)c3ccc(C)c(Nc4nccc(-c5cccnc5)n4)c3)cc(C(F)(F)F)c2)cn1 [nilotinib] | 1.03 ± 0.021 | 1.04 ± 0.038 | 0.971 ± 0.021 | 0.958 ± 0.014 | 0.956 ± 0.059 | 0.0407 ± 0.15 | 1 ± 0.036 | 0.991 ± 0.035 | 0.978 ± 0.029 | 0.992 ± 0.044 | 0.982 ± 0.035 | 0.507 ± 0.14 | 0.943 ± 0.038 | 0.914 ± 0.099 | 0.863 ± 0.1 | 0.805 ± 0.14 | 0.818 ± 0.13 | 0.00998 ± 0.16 | 1.09 ± 0.056 | 1.1 ± 0.072 | 1.09 ± 0.078 | 1.07 ± 0.06 | 1.07 ± 0.093 | 0.028 ± 0.096 | 1 ± 0.043 | 1.01 ± 0.044 | 1.02 ± 0.039 | 0.996 ± 0.043 | 1 ± 0.039 | 0.0181 ± 0.099 | 1.1 ± 0.074 | 1.11 ± 0.043 | 1.15 ± 0.029 | 1.11 ± 0.052 | 1.08 ± 0.068 | 0.208 ± 0.097
6 | COC(=O)c1ccc2c(C(=Nc3ccc(N(C)C(=O)CN4CCN(C)CC4)cc3)c3ccccc3)c(O)[nH]c2c1 [nintedanib] | 0.999 ± 0.043 | 0.892 ± 0.073 | 0.748 ± 0.12 | 0.545 ± 0.15 | 0.326 ± 0.2 | 0.038 ± 0.22 | 1.012 ± 0.0058 | 0.9933 ± 0.0087 | 0.9918 ± 0.0074 | 0.99 ± 0.014 | 0.918 ± 0.069 | 0.967 ± 0.029 | 1.08 ± 0.029 | 1.04 ± 0.022 | 0.9908 ± 0.0092 | 0.929 ± 0.067 | 0.842 ± 0.14 | 0.214 ± 0.56 | 0.922 ± 0.029 | 0.872 ± 0.043 | 0.727 ± 0.053 | 0.585 ± 0.14 | 0.386 ± 0.12 | 0.0955 ± 0.12 | 1.03 ± 0.056 | 1.01 ± 0.088 | 0.857 ± 0.14 | 0.843 ± 0.089 | 0.692 ± 0.079 | 0.508 ± 0.12 | 1.09 ± 0.024 | 1.02 ± 0.051 | 0.947 ± 0.028 | 0.835 ± 0.022 | 0.645 ± 0.095 | 0.0487 ± 0.37
7 | CC(=O)c1c(C)c2cnc(Nc3ccc(N4CCNCC4)cn3)nc2n(C2CCCC2)c1=O [palbociclib] | 0.696 ± 0.09 | 0.552 ± 0.13 | 0.447 ± 0.15 | 0.356 ± 0.13 | 0.32 ± 0.055 | 0.294 ± 0.024 | 0.839 ± 0.037 | 0.743 ± 0.052 | 0.666 ± 0.048 | 0.581 ± 0.038 | 0.534 ± 0.019 | 0.408 ± 0.051 | 0.675 ± 0.092 | 0.579 ± 0.077 | 0.477 ± 0.075 | 0.407 ± 0.043 | 0.35 ± 0.027 | 0.278 ± 0.039 | 0.68 ± 0.03 | 0.569 ± 0.024 | 0.485 ± 0.044 | 0.411 ± 0.032 | 0.397 ± 0.019 | 0.327 ± 0.018 | 0.654 ± 0.069 | 0.53 ± 0.14 | 0.412 ± 0.13 | 0.295 ± 0.082 | 0.273 ± 0.066 | 0.196 ± 0.033 | 0.819 ± 0.12 | 0.683 ± 0.037 | 0.612 ± 0.05 | 0.595 ± 0.038 | 0.568 ± 0.049 | 0.517 ± 0.046
